Patent US12171756B2, “NLRP3 modulators” (Innate Tumor Immunity, Inc., priority 2017, dated 2024)

Experiments:
human TLR8 = target: T1, human TLR8 (Homo sapiens, UniProt Q9NR97); experiment: In vitro human TLR8 binding reporter assay (HEK-Blue, NF-kB/AP1-inducible SEAP); assay type: cell-based; details: HEK-Blue human TLR8 SEAP reporter cells; activity range classes; read-out: TLR8 Agonist EC50
T1 construct: host or cells: human HEK-Blue cells (HEK293-derived) co-expressing TLR8 and an NF-kB/AP1-inducible SEAP reporter
T1 sequence (Q9NR97 27-1041): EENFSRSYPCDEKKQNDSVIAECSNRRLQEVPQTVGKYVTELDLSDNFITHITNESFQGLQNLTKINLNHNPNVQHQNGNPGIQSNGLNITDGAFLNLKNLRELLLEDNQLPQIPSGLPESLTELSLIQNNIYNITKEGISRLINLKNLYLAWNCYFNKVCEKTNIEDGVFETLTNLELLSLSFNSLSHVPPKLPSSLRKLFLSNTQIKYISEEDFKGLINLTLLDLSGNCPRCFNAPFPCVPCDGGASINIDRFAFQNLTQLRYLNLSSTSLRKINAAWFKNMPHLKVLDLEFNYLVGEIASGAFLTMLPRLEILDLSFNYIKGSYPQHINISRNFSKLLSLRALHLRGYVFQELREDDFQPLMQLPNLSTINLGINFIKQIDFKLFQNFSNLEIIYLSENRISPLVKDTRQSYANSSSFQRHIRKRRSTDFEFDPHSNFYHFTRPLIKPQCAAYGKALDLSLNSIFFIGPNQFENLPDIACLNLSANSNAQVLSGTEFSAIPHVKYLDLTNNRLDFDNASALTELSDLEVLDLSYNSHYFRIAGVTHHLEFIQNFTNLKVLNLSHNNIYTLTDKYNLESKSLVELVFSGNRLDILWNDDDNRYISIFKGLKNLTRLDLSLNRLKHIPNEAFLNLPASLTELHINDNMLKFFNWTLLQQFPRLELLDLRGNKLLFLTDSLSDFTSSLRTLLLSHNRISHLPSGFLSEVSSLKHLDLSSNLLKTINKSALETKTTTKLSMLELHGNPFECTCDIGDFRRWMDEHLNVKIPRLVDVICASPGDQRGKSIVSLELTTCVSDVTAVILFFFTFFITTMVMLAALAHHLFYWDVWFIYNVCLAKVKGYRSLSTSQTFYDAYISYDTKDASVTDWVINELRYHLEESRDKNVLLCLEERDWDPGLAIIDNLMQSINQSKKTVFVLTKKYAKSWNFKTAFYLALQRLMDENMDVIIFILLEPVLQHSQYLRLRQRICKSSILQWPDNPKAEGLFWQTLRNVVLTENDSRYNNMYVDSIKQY
Protocol: (§1) In Vitro Human TLR7 and TLR8 Binding Reporter Assays
(§2) Logarithmically-growing human HEK-Blue cells co-expressing a TLR7 or TLR8 gene and a NF-kB/AP1-inducible SEAP (secreted embryonic alkaline phosphatase; Invivogen, San Diego, CA) reporter gene are added to individual wells of a 384-well plate (15,000 cells per 20 μL per well) and maintained for 24 h at 37° C., 5% CO2. Test compounds or DMSO are distributed to separate wells the next day using acoustic liquid handling technology (100 nL per well) and cells are subsequently incubated for 18 h at 37° C., 5% CO2. Cellular SEAP production is measured using an Envision plate reader instrument thirty minutes after adding freshly-made Quanti-Blue reagent (prepared by following manufacturer instructions; Invivogen, San Diego, CA) to the HEK-Blue TLR Nf-kB-SEAP cell reactions. All EC50 values (half-maximal effective concentration) are determined using proprietary data analysis software. Normalized EC50 value=absolute value determined by setting 100% Ymax using a reference standard RLU (relative light unit) values from cells treated with 50 μM of the reference standard.

human TLR7 = target: T2, human TLR7 (Homo sapiens, UniProt Q9NYK1); experiment: In vitro human TLR7 binding reporter assay (HEK-Blue, NF-kB/AP1-inducible SEAP); assay type: cell-based; details: HEK-Blue human TLR7 SEAP reporter cells; activity range classes; read-out: TLR7 Agonist EC50
T2 construct: host or cells: human HEK-Blue cells (HEK293-derived) co-expressing TLR7 and an NF-kB/AP1-inducible SEAP reporter
T2 sequence (Q9NYK1 27-1049): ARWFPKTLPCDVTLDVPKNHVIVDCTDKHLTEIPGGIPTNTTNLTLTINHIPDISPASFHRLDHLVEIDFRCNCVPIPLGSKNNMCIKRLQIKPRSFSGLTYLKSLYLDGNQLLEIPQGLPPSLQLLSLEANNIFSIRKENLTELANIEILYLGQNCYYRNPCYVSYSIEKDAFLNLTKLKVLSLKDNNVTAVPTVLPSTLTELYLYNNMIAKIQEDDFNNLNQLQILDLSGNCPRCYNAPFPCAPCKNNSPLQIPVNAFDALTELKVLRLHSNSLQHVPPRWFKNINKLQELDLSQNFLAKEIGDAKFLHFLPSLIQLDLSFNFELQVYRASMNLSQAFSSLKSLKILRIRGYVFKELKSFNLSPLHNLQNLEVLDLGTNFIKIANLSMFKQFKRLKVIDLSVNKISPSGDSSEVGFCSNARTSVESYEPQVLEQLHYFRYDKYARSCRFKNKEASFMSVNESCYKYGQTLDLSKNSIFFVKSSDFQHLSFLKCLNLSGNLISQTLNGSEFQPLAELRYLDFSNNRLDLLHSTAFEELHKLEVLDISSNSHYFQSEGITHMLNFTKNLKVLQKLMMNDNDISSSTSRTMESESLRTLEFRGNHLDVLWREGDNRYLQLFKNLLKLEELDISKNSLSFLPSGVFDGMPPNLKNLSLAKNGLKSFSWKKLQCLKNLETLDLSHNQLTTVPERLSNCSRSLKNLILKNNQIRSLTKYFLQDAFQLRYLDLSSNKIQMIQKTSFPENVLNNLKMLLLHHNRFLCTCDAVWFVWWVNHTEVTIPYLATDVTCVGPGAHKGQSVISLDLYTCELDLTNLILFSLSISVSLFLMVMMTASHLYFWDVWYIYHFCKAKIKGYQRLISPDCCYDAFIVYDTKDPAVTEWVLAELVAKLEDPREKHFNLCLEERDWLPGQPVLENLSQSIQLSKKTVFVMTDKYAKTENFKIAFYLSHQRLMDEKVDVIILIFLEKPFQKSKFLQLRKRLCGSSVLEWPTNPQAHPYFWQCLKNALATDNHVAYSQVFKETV
Protocol: as §1, §2

[1] = system: IL-1β production in PMA-differentiated THP-1 cells; experiment: Measurement of IL-1β production in PMA-differentiated THP-1 cells (ELISA, 4 hours); assay type: cell-based, human; details: Homo sapiens, THP-1, human IL-1β production, assayed using one or more of the described procedures, read-out: NLRP3 hIL1B IC50
Protocol: Measurement of IL-1β Production in PMA-Differentiated THP-1 Cells THP-1 cells were purchased from the American Type Culture Collection and sub-cultured according to instructions from the supplier. Prior to experiments, cells were cultured in RPMI 1640 containing 10% heat inactivated FBS, penicillin (100 units/ml) and streptomycin (100 μg/ml), and maintained in log phase prior to experimental setup. Prior to the experiment THP-1 were treated with PMA (Phorbol 12-myristate 13-acetate) (10 μg/ml) for 24 hours. The day of the experiment the media was removed and attaching cells were treated with trypsin for 2 minutes, cells were then collected, washed with PBS (phosphate buffer saline), spin down, resuspended in 2% heat inactivated FBS with RPMI at a concentration of 1×10^6 cells/ml, and 100 μl was plated in a 96 well plate. Compounds were dissolved in dimethyl sulfoxide (DMSO) and added to the culture medium to achieve desired concentration (e.g. 100, 30, 10, 3, 1, 0.3 or 0.1 μM). Cells were incubated with compounds for 4 hours. Cell free supernatant was collected and the production of IL-1β was evaluated by ELISA. A vehicle only control was run concurrently with each experiment. Final DMSO concentration was 1%.

Structure (SMILES)	EC50 (human TLR8)	EC50 (human TLR7)	IC50 [1]
Cc1cn(CCNc2cc(N)nc3cc(-c4ccn[nH]4)ccc23)nn1 [Compound 236]	> 100 µM	> 100 µM	2.65 µM
Nc1cc(NCCCn2cncn2)c2ccc(-c3ccn[nH]3)cc2n1 [Compound 231]	> 100 µM	> 100 µM	1.27 µM
Nc1cc(OC[C@@H](O)CO)c2ccc(-c3ccn[nH]3)cc2n1 [Compound 220, (S)-3-((2-amino-7-(1H-pyrazol-5-yl)quinolin-4-yl)oxy)propane-1,2-diol]	> 100 µM	> 100 µM	0.57 µM
Nc1cc(NC[C@@H]2CCCNC2)c2ccc(-c3ccn[nH]3)cc2n1 [Compound 326]	> 100 µM	> 100 µM	24.7 µM
Nc1nc2cc(-c3cc[nH]n3)ccc2cc1CCCCCO [Compound 101, 5-[2-amino-7-(1H-pyrazol-3-yl)quinolin-3-yl]pentan-1-ol]	> 100 µM	> 100 µM	0.79 µM
CC(=O)NCCCCc1cc2ccc(-c3cc[nH]n3)cc2nc1N [Compound 109]	> 100 µM	> 100 µM	4.33 µM
Nc1cc(NCC2CNC2)c2ccc(-c3ccn[nH]3)cc2n1 [Compound 325]	> 100 µM	> 100 µM	23.2 µM
Nc1cc(NCCc2cccnn2)c2ccc(-n3cccn3)cc2n1 [Compound 343, 7-(1H-pyrazol-1-yl)-N4-(2-(pyridazin-3-yl)ethyl)quinoline-2,4-diamine]	> 100 µM	> 100 µM	0.61 µM
Nc1cc(NCC(F)(F)c2ccccn2)c2ccc(-c3ccn[nH]3)cc2n1 [Compound 161]	> 100 µM	> 100 µM	0.15 µM
Nc1cc(NCc2cccnn2)c2ccc(-c3ccn[nH]3)cc2n1 [Compound 149]	> 100 µM	> 100 µM	0.14 µM
Nc1cc(NC2CCC2)c2ccc(-c3ccn[nH]3)cc2n1 [Compound 273]	> 100 µM	> 100 µM	0.17 µM
Cn1nccc1CNc1cc(N)nc2cc(-c3ccn[nH]3)ccc12 [Compound 242]	> 100 µM	> 100 µM	2.35 µM
CN(Cc1cccnc1)c1cc(N)nc2cc(-c3ccn[nH]3)ccc12 [Compound 264]	> 100 µM	> 100 µM	2.89 µM

Further lines, results first:

EC50 (human TLR8)	EC50 (human TLR7)	IC50 [1]	Structure (SMILES)
> 100 µM	> 100 µM	1.56 µM	Nc1cc(NC[C@H]2CCCN2)c2ccc(-c3cc[nH]n3)cc2n1 [Compound 285]
> 100 µM	> 100 µM	0.97 µM	Nc1cc(NCc2cccnc2)c2ccc(-n3cccn3)cc2n1 [Compound 175]
> 100 µM	> 100 µM	0.85 µM	Nc1cc(N2CCOCC2)c2ccc(-c3ccn[nH]3)cc2n1 [Compound 131]
> 100 µM	> 100 µM	0.11 µM	Nc1cc(NCc2cnc[nH]2)c2ccc(-n3cccn3)cc2n1 [Compound 307]
> 100 µM	> 100 µM	1.8 µM	Nc1ccc2ccc(-c3ccn[nH]3)cc2n1 [Compound 314, 7-(1H-pyrazol-5-yl)quinolin-2-amine]
> 100 µM	> 100 µM	2.46 µM	CCN(CCCCc1cc2ccc(-c3cc[nH]n3)cc2nc1N)C(C)=O [Compound 111]
> 100 µM	> 100 µM	5.82 µM	CCN(CC)CCNc1cc(N)nc2cc(-c3ccn[nH]3)ccc12 [Compound 170]
> 100 µM	> 100 µM	0.42 µM	Nc1cc(NCC(O)c2ccccn2)c2ccc(-c3ccn[nH]3)cc2n1 (stereo not drawn) [Compound 155]
> 100 µM	> 100 µM	0.65 µM	Nc1cc(NCC(F)(F)c2ccccn2)c2ccc(-n3cccn3)cc2n1 [Compound 299]
> 100 µM	> 100 µM	0.35 µM	Nc1cc(NCc2cncs2)c2ccc(-c3ccn[nH]3)cc2n1 [Compound 244]
> 100 µM	> 100 µM	2.01 µM	CNC(=O)CCNc1cc(N)nc2cc(-c3ccn[nH]3)ccc12 [Compound 139]
